Key:
[1] = test system: MV4-11; experiment: Anti-proliferative activity against human MV4-11 cells assessed as inhibition of cell proliferation incubated for 5 days by Cell Titre Glo luminescent assay; format: functional; conditions: Homo sapiens, MV4-11, 120 h, time 5 day
[2] = test system: K562; experiment: Anti-proliferative activity against human K562 cells assessed as inhibition of cell proliferation incubated for 5 days by Cell Titre Glo luminescent assay; format: functional; conditions: Homo sapiens, K562, 120 h, time 5 day
[3] = target: WD repeat-containing protein 5 (Homo sapiens, UniProt P61964); experiment: Competitive binding affinity to N-terminal 6xHis-SUMO-tagged human WDR5 (22 to 334 residues) expressed in Escherichia coli BL21-Gold (DE3) cells assessed as inhibition constant using 10-mer-Thr-FAM peptide as substrate incubated for 1 hr by Lantha Screen based TR-FRET assay
[4] = test system: MOLM-13; experiment: Anti-proliferative activity against human MOLM-13 cells assessed as inhibition of cell proliferation incubated for 5 days by Cell Titre Glo luminescent assay; format: functional; conditions: Homo sapiens, MOLM-13, 120 h, time 5 day
[5] = Half life in CD-1 mouse at 10 mg/kg, po measured 0.083 to 24 hrs post-treatment by LC-MS/MS analysis; format: ADME, organism-based; conditions: mouse, in vivo, po, 10 mg/kg, time 0.083-24 hrs
[6] = AUC (0 to infinity) in CD-1 mouse at 3 mg/kg, iv measured 0.083 to 24 hrs post-treatment by LC-MS/MS analysis; format: ADME, organism-based; design: time upper 24 hrs, time lower 0.083 hrs, dose 3 mg/kg, route iv; conditions: mouse, in vivo
[7] = Volume of distribution at steady state in CD-1 mouse at 3 mg/kg, iv measured 0.083 to 24 hrs post-treatment by LC-MS/MS analysis; format: ADME, organism-based; conditions: mouse, in vivo, iv, 3 mg/kg, time 0.083-24 hrs
[8] = Cmax in CD-1 mouse at 10 mg/kg, po measured 0.083 to 24 hrs post-treatment by LC-MS/MS analysis; format: ADME, organism-based; design: time lower 0.083 hrs, dose 10 mg/kg, time upper 24 hrs, route po; conditions: mouse, in vivo
[9] = AUC (0 to infinity) in CD-1 mouse at 10 mg/kg, po measured 0.083 to 24 hrs post-treatment by LC-MS/MS analysis; format: ADME, organism-based; design: dose 10 mg/kg, time upper 24 hrs, time lower 0.083 hrs, route po; conditions: mouse, in vivo
[10] = Oral bioavailability in CD-1 mouse at 10 mg/kg measured 0.083 to 24 hrs post-treatment by LC-MS/MS analysis; format: ADME, organism-based; conditions: mouse, in vivo, po, 10 mg/kg, time 0.083-24 hrs
[11] = Kinetic solubility of compound in PBS at pH 7.4 at 100 uM incubated for 1 hr by UV-visible spectroscopy analysis; format: physicochemical; conditions: buffer, pH 7.4, 1 h, 100 µM

| Compound | GI50 [1] | GI50 [2] | Ki [3] | GI50 [4] | t1/2 [5] | AUC [6] | Vdss [7] | Cmax [8] | AUC [9] | F [10] | Kinetic_solubility [11] |
| --- | --- | --- | --- | --- | --- | --- | --- | --- | --- | --- | --- |
| COc1cc(CN2CCc3c(cc(Cn4ccn(C)c4=N)cc3-c3cc(C)cnc3C)C2=O)cc(OC)c1 | 640 nM | > 30000 nM | 0.022 nM | 2400 nM | – | – | – | – | – | – | – |
| CCn1cc(-c2cc(Cn3ccnc3)cc3c2CCN([C@H](c2cc(OC)ccn2)C2CC2)C3=O)c(C(F)(F)F)n1 | 19 nM | 1500 nM | < 0.02 nM | 37 nM | 1.2 h | – | – | – | – | – | – |
| COc1cc(CN2CCc3c(cc(Cn4ccnc4C4CC4)cc3-c3cn(C)nc3C(F)(F)F)C2=O)cc(OC)c1 | 240 nM | 8500 nM | 0.028 nM | 710 nM | – | – | – | – | – | – | – |
| COc1cc(CN2CCc3c(cc(Cn4ccn(C)c4=N)cc3-c3ccc(F)cc3OC)C2=O)cc(OC)c1 | 210 nM | 18000 nM | 0.033 nM | 420 nM | – | – | – | – | – | – | – |
| Cc1cccnc1CN1CCc2c(cc(Cn3ccnc3C)cc2-c2cn(C)nc2C(F)(F)F)C1=O | 3000 nM | 22000 nM | 0.59 nM | 4700 nM | – | – | – | – | – | – | – |
| COc1cc(CN2CCc3c(cc(Cn4ccn(C)c4=N)cc3-c3ccc(F)cc3O)C2=O)cc(OC)c1 | 88 nM | > 30000 nM | 0.035 nM | 220 nM | – | – | – | – | – | – | – |
| COc1cc(CN2CCc3c(cc(Cn4ccnc4C(F)F)cc3-c3cn(C)nc3C(F)(F)F)C2=O)cc(OC)c1 | 12000 nM | > 30000 nM | > 6.7 nM | 20000 nM | – | – | – | – | – | – | – |
| CCc1ccnc(CN2CCc3c(cc(Cn4ccnc4C)cc3-c3cn(C)nc3C(F)(F)F)C2=O)c1 | 16 nM | 4100 nM | < 0.02 nM | 25 nM | – | – | – | – | – | – | – |
| CCn1cc(-c2cc(Cn3ccnc3)cc3c2CCN([C@H](C)c2cc(OC)ccn2)C3=O)c(C(F)(F)F)n1 | 39 nM | 12000 nM | 0.028 nM | 100 nM | – | – | – | – | – | – | – |
| CCn1cc(-c2cc(Cn3ccnc3C)cc3c2CCN([C@H](C)c2cc(OC)ccn2)C3=O)c(C(F)(F)F)n1 | 39 nM | 7800 nM | 0.029 nM | 110 nM | – | – | – | – | – | – | – |
| COc1cc(CN2CCc3c(cc(Cn4ccn(C)c4=N)cc3-c3cn(C)nc3C)C2=O)cc(OC)c1 | 210 nM | > 30000 nM | 0.023 nM | 570 nM | – | – | – | – | – | – | – |
| COc1cc(CN2CCc3c(cc(Cn4ccn(C)c4=N)cc3-c3cccnc3OC)C2=O)cc(OC)c1 | 560 nM | > 30000 nM | 0.055 nM | 1600 nM | – | – | – | – | – | – | – |
| COc1cc(CN2CCc3c(cc(Cn4ccn(C)c4=N)cc3-c3ccncc3C)C2=O)cc(OC)c1 | 230 nM | > 30000 nM | 0.029 nM | 640 nM | – | – | – | – | – | – | – |
| CCn1cc(-c2cc(Cn3ccnc3C)cc3c2CCN(Cc2cc(OC)ccn2)C3=O)c(C(F)(F)F)n1 | 34 nM | 13000 nM | < 0.02 nM | 59 nM | – | – | – | – | – | – | – |
| COc1cc(CN2CCc3c(cc(Cn4cccn4)cc3-c3cn(C)nc3C(F)(F)F)C2=O)cc(OC)c1 | 22000 nM | > 30000 nM | > 6.7 nM | 20000 nM | – | – | – | – | – | – | – |
| COc1cc(CN2CCc3c(cc(Cn4ccn(C)c4=N)cc3-c3cc(C)nn3C)C2=O)cc(OC)c1 | 85 nM | > 30000 nM | 0.025 nM | 270 nM | – | – | – | – | – | – | – |
| Cc1cc(CN2CCc3c(cc(Cn4ccnc4C)cc3-c3cn(C)nc3C(F)(F)F)C2=O)ccn1 | 270 nM | 13000 nM | 0.064 nM | 550 nM | – | – | – | – | – | – | – |

| Compound | GI50 [1] | GI50 [2] | Ki [3] | GI50 [4] | t1/2 [5] | AUC [6] | Vdss [7] | Cmax [8] | AUC [9] | F [10] | Kinetic_solubility [11] |
| --- | --- | --- | --- | --- | --- | --- | --- | --- | --- | --- | --- |
| COc1cc(CN2CCc3c(cc(Cn4cnnc4)cc3-c3cn(C)nc3C(F)(F)F)C2=O)cc(OC)c1 | 16000 nM | > 30000 nM | 6.5 nM | > 30000 nM | – | – | – | – | – | – | – |
| Cc1ccnc(CN2CCc3c(cc(Cn4ccnc4C)cc3-c3cn(C)nc3C(F)(F)F)C2=O)c1 | 23 nM | 3600 nM | 0.02 nM | 33 nM | – | – | – | – | – | – | – |
| CCn1cc(-c2cc(Cn3ccn(C)c3=N)cc3c2CCN(Cc2cc(OC)cc(OC)c2)C3=O)c(C(F)(F)F)n1 | 36 nM | > 30000 nM | < 0.02 nM | 110 nM | – | – | – | – | – | – | – |
| CCn1cc(-c2cc(Cn3ccnc3C)cc3c2CCN([C@H](c2cc(C)ccn2)C2CC2)C3=O)c(C(F)(F)F)n1 | 17 nM | 2500 nM | < 0.02 nM | 43 nM | 1.2 h | 2075 ng·h/mL | 1.1 L/kg | 1083 ng/mL | 1000 ng·h/mL | 15% | 66 µM |
| CCc1ccnc(CN2CCc3c(cc(Cn4ccnc4C)cc3-c3cn(CC)nc3C(F)(F)F)C2=O)c1 | 24 nM | 5600 nM | < 0.02 nM | 43 nM | – | – | – | – | – | – | – |
| CCc1nccn1Cc1cc2c(c(-c3cn(C)nc3C(F)(F)F)c1)CCN(Cc1cc(OC)cc(OC)c1)C2=O | 94 nM | 7500 nM | – | 240 nM | – | – | – | – | – | – | – |
| Cc1cccc(CN2CCc3c(cc(Cn4ccnc4C)cc3-c3cn(C)nc3C(F)(F)F)C2=O)n1 | 170 nM | 13000 nM | 0.039 nM | 330 nM | – | – | – | – | – | – | – |
| COc1cc(CN2CCc3c(cc(Cn4ccnc4)cc3-c3cn(C)nc3C(F)(F)F)C2=O)cc(OC)c1 | 59 nM | 9100 nM | < 0.02 nM | 180 nM | – | – | – | – | – | – | – |
| COc1cc(CN2CCc3c(cc(Cn4ccn(C)c4=N)cc3-c3cc(C)ncc3C)C2=O)cc(OC)c1 | 200 nM | > 30000 nM | < 0.02 nM | 560 nM | – | – | – | – | – | – | – |
| COc1cc(CN2CCc3c(cc(Cn4ccn(C)c4=N)cc3-c3c(C)nn(C)c3C)C2=O)cc(OC)c1 | 19000 nM | > 30000 nM | 0.21 nM | > 30000 nM | – | – | – | – | – | – | – |
| COc1cc(CN2CCc3c(cc(Cn4ccn(C)c4=N)cc3-c3cn(C)nc3C(F)(F)F)C2=O)cc(OC)c1 | 39 nM | > 30000 nM | < 0.02 nM | 110 nM | – | – | – | – | – | – | – |
| COc1cc(CN2CCc3c(cc(Cn4cccc4)cc3-c3cn(C)nc3C(F)(F)F)C2=O)cc(OC)c1 | 15000 nM | > 30000 nM | > 6.7 nM | 15000 nM | – | – | – | – | – | – | – |
| COc1cc(CN2CCc3c(cc(Cn4ccnc4C(C)C)cc3-c3cn(C)nc3C(F)(F)F)C2=O)cc(OC)c1 | 4700 nM | 6000 nM | 3.4 nM | 7700 nM | – | – | – | – | – | – | – |
| COc1cc(CN2CCc3c(cc(Cn4ccnc4C)cc3-c3cn(C)nc3C(F)(F)F)C2=O)cc(OC)c1 | 32 nM | 3700 nM | < 0.02 nM | 110 nM | – | – | – | – | – | – | – |
| COc1cc(CN2CCc3c(cc(Cn4ccn(C)c4=N)cc3-c3cccnc3C)C2=O)cc(OC)c1 | 1200 nM | > 30000 nM | 0.036 nM | 3900 nM | – | – | – | – | – | – | – |
| COc1cc(CN2CCc3c(cc(Cn4ccn(C)c4=N)cc3-c3conc3C)C2=O)cc(OC)c1 | 850 nM | > 30000 nM | 0.046 nM | 2100 nM | – | – | – | – | – | – | – |
| Cc1nccn1Cc1cc2c(c(-c3cn(C)nc3C(F)(F)F)c1)CCN(Cc1ccccn1)C2=O | 1500 nM | > 30000 nM | 0.23 nM | 3100 nM | – | – | – | – | – | – | – |

Reference: ChEMBL document CHEMBL5154875, “Discovery of Potent Orally Bioavailable WD Repeat Domain 5 (WDR5) Inhibitors Using a Pharmacophore-Based Optimization” (J Med Chem, 2022)
